# Assay results published in patent US20240083998A1, “PREVENTION AND TREATMENT OF STEROID-RESISTANT OR GUT GRAFT-VERSUS-HOST DISEASE (GVHD)” (CIY OF HOPE, priority 2021, published 2024).
# Tested on: BALB/c recipients
# Experimental: Splenocytes and T cell depleted bone marrow cells from donors were injected via tail vein into recipients 6-8 hours after irradiation. […] Depletion of T cells from the bone marrow was accomplished by using biotin-conjugated anti-CD4 and anti-CD8 mAbs, and streptavidin Microbeads (Miltenyi Biotec, Germany), followed by passage through an autoMACS Pro cell sorter (Miltenyi Biotec, Germany). Microbeads (Ly-2, Miltenyi Biotec, Germany) were used for to purify CD8^+T cell, and purity was>99%. The assessment and scoring of clinical signs of GVHD have been described in previous publications^60.
# ELISA: Reg3γ(antibodies online), ST2 (R&D system) and sTNFR1 (Thermo Scientific) in serum were measured by enzyme-linked immune sorbent assay (ELISA) according to manufacturer's protocol. Serum was collected and spun down at 2000 rpm for 10 min at 4° C. Clear supernatant was collected and stored at −20° C. until ELISA analysis. […]
# Histological analysis: Tissue specimens were fixed in formalin before embedding in paraffin blocks, sectioned and stained with H&E. Slides were examined at 100× or 200× magnification and visualized with a Zeiss Observer II. […] For Paneth cell quantification, a total of 9 pictures from 3 different locations of the H&E-stained slides from one mouse were taken under 200× magnification, and total Paneth cell and crypt numbers were counted, Paneth cell numbers per crypt are shown. […]
smiles,measurement,setting,value
"C[C@@H]1C[C@H]2[C@@H]3CCC4=CC(=O)C=C[C@]4(C)[C@@]3(F)[C@@H](O)C[C@]2(C)[C@@]1(O)C(=O)CO [DEX, Dexamethasone]",IL-17A+IL-22−CD4+Th17 and IL-17A+IL-22−CD8+Tc17 cells among CD4+ and CD8+T cells,"recipients treated with DEX, 7 days after HCT",1-5%
same,survival after HCT,"single injection 5 mg/Kg on day 3 (1-DEX), mild clinical GVHD",up to 20 days
